{"source": "patent US20170035787A1", "about": "“Fixed Dose Combination for Pain Relief Without Edema” (Autotelic LLC, priority 2014, published 2017)", "key": {"[1]": {"experiment": "Combined plots and meta analysis of published celecoxib pharmacokinetic data", "type": "in vivo, human", "text": "In other words, the most efficacious celecoxib dosage is not well defined among the elderly. The problem may be more widespread than expected as elderly here is defined as patients greater than >40 or >50, not the usually definition of elderly (age greater >65)."}, "[2]": {"details": "in vivo"}, "[3]": {"details": "cited from earlier work"}, "[4]": {"details": "CELEBREX Package Insert table; cited from earlier work"}, "[5]": {"experiment": "Applicant's meta analysis of reported edema rates in osteoarthritic populations by celecoxib dose"}}, "note": "“And” between values parts separate entries of the source, which are not always exact repeats. Equal values may be shown once. “Also recorded” adds a separate entry of the source."}
{"molecule": "Cc1ccc(-c2cc(C(F)(F)F)nn2-c2ccc(S(N)(=O)=O)cc2)cc1", "note": "[celecoxib]", "values": [{"measurement": "variability of pharmacokinetics; 100 mg vs 200 mg dose PK results", "setting": "[1]; FIG. 2, listed as CELEBREX®", "result": "unexpectedly high; also recorded: substantial overlap"}, {"measurement": "drug exposure as defined by AUC, elderly vs younger patients", "setting": "[1]; age-based subgroups, FIG. 3", "result": "highly significant differences"}, {"measurement": "% Edema", "setting": "[2]; human", "result": 20, "unit": "%"}, {"measurement": "effect of anti-hypertensive class on incidence of edema in patients taking CELEBREX", "setting": "[2]", "result": "steady increase in incidence of edema"}, {"measurement": "incidence of edema in patients taking CELEBREX with or without diuretic", "setting": "[2]", "result": "steady increase in incidence of edema"}, {"measurement": "incidence of edema with vs without CELEBREX by arthritis group", "setting": "[2]", "result": "increased when patients was taken CELEBREX® for all groups except for RA and no Arthritis free patients"}, {"measurement": "incidence of edema", "setting": "[3]; two trials with much higher incidence", "result": "23% and 38%"}, {"measurement": "incidence of edema at any site", "setting": "[3]; usual incidence in clinical trials of celecoxib", "result": "about 3%"}, {"measurement": "patients treated who develop edema", "setting": "[4]", "result": 2.1, "unit": "%"}, {"measurement": "upper limit and average edema event rate", "setting": "[5]; 400 mg/day vs 100 or 200 mg/day", "result": "more than twice as high"}, {"measurement": "edema event rates", "setting": "[5]; 100 vs 200 mg/day dose", "result": "remarkably similar edema event rates"}]}
{"molecule": "O=C(O)Cc1ccccc1Nc1c(Cl)cccc1Cl", "note": "[diclofenac]", "values": [{"measurement": "patients treated who develop edema", "setting": "[4]", "result": 1.0, "unit": "%"}]}
{"molecule": "CC(C)Cc1ccc(C(C)C(=O)O)cc1", "note": "(centres unmarked) [ibuprofen]", "values": [{"measurement": "patients treated who develop edema", "setting": "[4]", "result": 3.5, "unit": "%"}]}
{"molecule": "COc1ccc2cc([C@H](C)C(=O)O)ccc2c1", "note": "[naproxen]", "values": [{"measurement": "patients treated who develop edema", "setting": "[4]", "result": 2.1, "unit": "%"}]}
